Experimental data published in patent US20120245180A1, “COMBINATION” (GlaxoSmithKline LLC, priority 2009, published 2012).
Like-named read-outs stand apart in the source and are kept apart here. Blank lines part the entries; values can stand above or below the compound they belong to.

Experiments:
Test in all cases: Cell growth inhibition assay, breast tumor cell line (Cell Titer Glo)
Format in all cases: cell-based
[1] = system: BT474-J4; settings: Homo sapiens, 72 h, BT474-J4 (HER2+), 3 days
Procedure: (§1) Human tumor cell lines from hepatocellular carcinoma (HCC), C3A, Hep3B, HepG2, PLC/PRF/5, SNU182, SNU387, SNU398, SNU423, SNU449 and SNU475 were purchased from the ATCC. Human breast tumor cell lines, HCC2218, HCC1419, BT-474, SK-BR-3, UACC893, JIMT-1, MDA-MB-361, HCC202, MDA-MB-175-VII, HCC1569, HCC1937, HCC38, MDA-MB-157, HCC1954, HCC1500, BT483, KPL-1, SUM225 and ZR-75-1 from ATCC, SUM52 and SUM190 from Asterand, PLC (Detroit Mich.), were cultured in RPMI 1640 medium containing 10% FBS; SKBR3-W13 and BT-474-J4 cultured in RPMI 1640 medium containing 10% FBS and 1 μM lapatinib; KPL4 line was kindly provided by Dr Junichi Kurebayashi (Kawasaki Medical School, Okayama, Japan) and cultured in DMEM containing 5% FBS. JIMT-1 from European Collection of Cell Cultures (UK), is a line derived from a patient clinically resistant to trastuzumab (Herceptin®). SK-BR-3-W13 is a single cell clone isolated by a cloning cylinder after a single treatment of SK-BR-3 cells with 0.5 μM lapatinib. BT-474-J4 is a single cell clone derived from a pool of BT-474 cells that were selected to grow in lapatinib to a concentration of 3 μM.
(§2) Cells were seeded in a 96-well tissue culture plate (NUNC 136102) of RPMI medium containing 10% FBS at 500-2,000 cells per well. Approximately 24 hours after plating, cells were exposed to ten, two-fold or three-fold serial dilutions of either Compound A or B or the combination of the two agents at a 2:1 molar ratio (Compounds A and B respectively). In some cases, cells were grown in RPMI media containing 10% FBS and in the presence or absence of 2 ng/mL hepatocyte growth factor (HGF). Cells were incubated in the presence of compounds for 3 days. ATP levels were determined by adding Cell Titer Glo® (Promega) according to the manufacturer's protocol. Briefly, Cell Titer Glo® was added to each plate, incubated for 20 minutes then luminescent signal was read on the SpectraMax L plate reader with a 0.5 sec integration time. All assays were run at least in duplicate.
(§3) Inhibition of cell growth was estimated after treatment with compound or combination of compounds for three days and comparing the signal to cells treated with vehicle (DMSO). Cell growth was calculated relative to vehicle (DMSO) treated control wells. Concentration of compound that inhibits 50% of control cell growth (IC50) was back-interpolated when y=50% of DMSO treated control wells using nonlinear regression with the equation: […]
(§4) where A is the minimum response (ymin), B is the maximum response (Ymax), C is the inflection point of the curve (EC50) and D is the Hill coefficient.
(§5) Combination effects on potency were evaluated using the Combination Index (CI) and Excess Over Highest Single Agent (EHOSA) methods.
(§6) DNA Copy number data on the HER2 gene was collected for all breast cancer cell lines using the Affymetrix 500K chip (Affymetrix Inc, Sunnyvale, Calif.). Briefly DNA was extracted from each line, digested with the restriction enzyme Nsp or Sty, ligated to an adaptor and amplified by PCR. After PCR, DNA was fragmented, labeled, denatured, and hybridized to the Affymetrix 500K chip. Upon completion of hybridization, each assay was washed and stained. Image data were acquired. Similarly collected data from a panel 10 diploid non-tumorigenic lymphoblastic cell lines were used to calculate DNA copy number. All ‘SNP Chip’ images ('CEL files'), were extracted, read and normalized using the dChip software package (Lin et al. 2004. Bioinformatics. 20:1233-40). SNP-wise ‘copy-number ratios’ (log2 scale) were calculated for all cancer cell lines using the lymphoblastic reference panel and analyzed by circular binary segmentation to reduce noise (Olshen et al. 2004. Biostatistics. 5:557-72). Cell lines with log2 ratios of HER2>0.65 were considered HER2+.

[2] = system: BT474; settings: Homo sapiens, BT-474, 72 h, BT474 (HER2+), 3 days
Procedure: as §1, §2, §3, §4, §5, §6

[3] = system: HCC1500; settings: Homo sapiens, 72 h, HCC1500 (HER2−), 3 days
Procedure: as §1, §2, §3, §4, §5, §6

[4] = system: HCC1954; settings: Homo sapiens, 72 h, HCC1954 (HER2+), 3 days
Procedure: as §1, §2, §3, §4, §5, §6

[5] = system: HCC202; settings: Homo sapiens, 72 h, HCC202 (HER2+), 3 days
Procedure: as §1, §2, §3, §4, §5, §6

[6] = system: HCC38; settings: Homo sapiens, 72 h, HCC38 (HER2−), 3 days
Procedure: as §1, §2, §3, §4, §5, §6

[7] = system: JIMT-1; settings: Homo sapiens, 72 h, JIMT-1 (HER2+), 3 days
Procedure: as §1, §2, §3, §4, §5, §6

[8] = system: KPL1; settings: Homo sapiens, KPL-1, 72 h, KPL1 (HER2−), 3 days
Procedure: as §1, §2, §3, §4, §5, §6

[9] = system: KPL4; settings: Homo sapiens, 72 h, KPL4 (HER2+), 3 days
Procedure: as §1, §2, §3, §4, §5, §6

[10] = system: SK-BR-3; settings: Homo sapiens, 72 h, SK-BR-3 (HER2+), 3 days
Procedure: as §1, §2, §3, §4, §5, §6

[11] = system: SUM52; settings: Homo sapiens, 72 h, SUM52 (HER2−), 3 days
Procedure: as §1, §2, §3, §4, §5, §6

[12] = system: UACC893; settings: Homo sapiens, UACC-893, 72 h, UACC893 (HER2+), 3 days
Procedure: as §1, §2, §3, §4, §5, §6

[13] = system: ZR-75-1; settings: Homo sapiens, 72 h, ZR-75-1 (HER2−), 3 days
Procedure: as §1, §2, §3, §4, §5, §6

[14] = read-out: Single agent IC50, Compound B
[15] = read-out: Single agent IC50, Compound A

IC50 [1, 14]: 0.014 ± 0.008 µM
IC50 [2, 14]: 0.03 ± 0.007 µM
IC50 [3, 14]: 0.061 ± 0.036 µM
IC50 [4, 14]: 0.011 ± 0.003 µM
IC50 [5, 14]: 0.045 ± 0.004 µM
IC50 [6, 14]: 0.095 ± 0.034 µM
IC50 [7, 14]: 0.028 ± 0.005 µM
IC50 [8, 14]: 0.008 ± 0.004 µM
IC50 [9, 14]: 0.003 ± 0.001 µM
IC50 [10, 14]: 0.024 ± 0.02 µM
IC50 [11, 14]: 0.004 µM
IC50 [12, 14]: 0.003 ± 0.003 µM
IC50 [13, 14]: 0.006 ± 0.001 µM
SMILES: COc1ncc(-c2ccc3nccc(-c4ccnnc4)c3c2)cc1NS(=O)(=O)c1ccc(F)cc1F [Compound B, 2,4-difluoro-N-{2-(methyloxy)-5-[4-(4-pyridazinyl)-6-quinolinyl]-3-pyridinyl}benzenesulfonamide]

IC50 [1, 15]: > 1 µM
IC50 [2, 15]: > 1 µM
IC50 [3, 15]: > 1 µM
IC50 [4, 15]: 1.02 ± 0.839 µM
IC50 [5, 15]: > 1 µM
IC50 [6, 15]: > 1 µM
IC50 [7, 15]: > 1 µM
IC50 [8, 15]: > 1 µM
IC50 [9, 15]: > 1 µM
IC50 [10, 15]: > 1 µM
IC50 [11, 15]: 0.009 ± 0.005 µM
IC50 [12, 15]: > 1 µM
IC50 [13, 15]: > 1 µM
SMILES: CC(=O)Nc1cccc(-n2c(=O)n(C3CC3)c(=O)c3c(Nc4ccc(I)cc4F)n(C)c(=O)c(C)c32)c1 [Compound A, N-{3-[3-cyclopropyl-5-[(2-fluoro-4-iodophenyl)amino]-6,8-dimethyl-2,4,7-trioxo-3,4,6,7-tetrahydropyrido[4,3-d]pyrimidin-1(2H)-yl]phenyl}acetamide]
